Tests used:
Type in all cases: cell-based, human
hMSCs [1] = experiment: Compound treatment on OS-induced osteogenic differentiation of hMSCs (ALP / alizarin red staining); settings: for osteogenic differentiation of hMSCs combined with OS treatment: compound plus OS media
Description: (§1) 8-CPT-cAMP, Na (cat# 116812), 5-Iodotubercidin (cat# 407900), Prostaglandin E2 (PGE2, cat# 538904), SB 202190 (cat# 559388) and U0126 (cat# 662005) were purchased from Calbiochem; N6,2′-O-Dibutyryl-cAMP (cat# D0260-5MG), forskolin (cat# F6886), ascorbic acid 2-phosphate (cat# 49752-10G), (3-glycerophosphate (G-6251), dexamethasone (D8893), 3-isobutyl-1-methylxanthine (IBMX, 15879) and Insulin (19278) were purchased from Sigma/Aldrich/Fluka.
(§2) Since the targeted genes are all positively involved in intracellular cAMP signaling, we tested the effect of two compounds of opposing function on cAMP production on osteogenic differentiation of hMSCs, ADK inhibitor 5-iodotubercidin and ADCY activator forskolin (Cottam, H. B. et al., J Med Chem 36:3424-3430 (1993); de Souza, N. J. et al., Med Res Rev 3:201-219 (1983)). […] ATP has been shown as a ligand for P2RY11 receptor (Communi et al., 1997). […] The present observations are consistent with the conclusion that […] in hMSCs, and vice versa.

hMSCs [2] = experiment: Adipogenic differentiation of hMSCs, Oil Red O staining; settings: for differentiation of hMSCs into mature adipocytes: cAMP analog combined with dexamethasone; for cell fate commitment osteogenic vs adipogenic: compound combined with the OS media; for adipogenic differentiation of hMSCs, cAMP-raising compounds: compound treatment, especially in the presence of dexamethasone (FIG. 7b)
Description: Cells were rinsed with PBS twice, fixed in 10% formalin solution for 20 minutes, rinsed with PBS twice and dH2O once, washed with propylene glycol for 5 minutes, and stained with Oil red in propylene glycol (12722A, Newcomer Supply) for 30 minutes. Cells were then washed with 85% propylene glycol for 5 minutes, rinsed with dH2O 3 times and preserved in 50% glycerol.
as §1
Bone cell maturation is accompanied by extracellular matrix (ECM) mineralization (John Bilezikian et al., Principles of bone biology, Vol 1, 2nd edn: Academic Press) (2002)). To examine whether the osteogenic differentiation of hMSCs induced by the hit siRNAs can further proceed to the maturation stage, hit siRNA treated cells were cultured for 20 days. […] These observations are consistent with the conclusion that the targeted genes of the ten effective hit siRNAs not only play inhibitory roles in osteogenic specification of hMSCs, but also in bone cell maturation. […] Furthermore, in osteoporotic patients, the number of adipocytes was increased in the marrow, implying a change of cell fate disposition from osteoblast lineage to adipocyte lineage (Justesen, J. et al., Biogerontology 2:165-171 (2001); Meunier, P. et al., Clin Orthop Relat Res 80:147-154 (1971)). We therefore examined the effect of our hit siRNAs on adipogenic differentiation of hMSCs by combined treatment with an adipogenic inducing cocktail (100 μg/ml BMX, 1 μM DEX and 10 μg/ml insulin).
as §2

hMSCs [3] = experiment: Alizarin red staining for calcium phosphate deposits (ECM mineralization, bone cell maturation); settings: for intensity of alizarin red staining: OS treatment started three days after siRNA transfection and continued for 9 days (3+9OS), vs siCon
CREB = experiment: Western blot of active (phosphorylated) CREB; settings: 3 days after transfection, vs siCon treated or untreated
Description: Cell lyses buffer contains 20 mM Tris pH8.0, 1 mM EDTA, 150 mM NaCl and 0.5% NP-40, and before usage, protease inhibitor cocktail (Cat# p8340, Sigma, 1:100 dilution) and phosphatase inhibitor cocktail 2 (Cat# p5726, sigma, 1:100 dilution) were added. Proteins (60 μg/well) were separated in 12% Novex Tris-Glycine gel (Cat# EC6008 box, Invitrogen) and transferred to Nitrocellulose membrane (Cat# LC2001, Invitrogen) using the XCell II blot module system (Cat# E19051, Invitrogen). The membrane was blocked in 5% milk/PBST for 1 hour at room temperature, incubated over night at 4 degree with primary antibody, washed 3 times with PBST (0.05% Tween 20 in PBS), followed by one hour incubation with secondary antibody in 5% milk/PBST and 3 times wash with PBST at room temperature. For antibody against pCREB however, PBST was substituted with PBS in all steps except for the last one. Antibody-bound proteins were detected utilizing ECL Western blotting detection reagent (Amersham Biosciences).
Anti-phospho-CREB was purchased from Upstate Biotechnology (cat# 06-519); Anti-phospho-p38 was purchased from Cell signaling technology (cat# 9910).
To find out whether CREB (cAMP Responding Element Binding protein), a common downstream effector of cAMP signaling pathway, is involved in mediating cAMP signaling controlled differentiation of hMSCs, we checked the expression level of the active form of CREB proteins in cells 3 days after siP2RY11, siADK, siGNAS, siSLC12a2 or siCon transfection. […] To further examine the role of CREB in osteogenesis and adipogenesis, a synthetic 24-mer CRE decoy oligonucleotide that can compete with endogenous CRE enhancers for binding proteins was transfected into hMSCs (Park, Y. G. et al., J Biol Chem 274:1573-1580 (1999)), which were then subjected to the treatment of osteogenic or adipogenic induction media.

Compound: Nc1ncnc2c1c(I)cn2[C@@H]1O[C@H](CO)[C@@H](O)[C@H]1O [5-iodotubercidin]
- osteogenic differentiation of hMSCs combined with OS treatment (hMSCs [1]): significantly enhanced the osteogenic differentiation of hMSCs
- adipogenic differentiation of hMSCs under compound (hMSCs [2]; compound plus adipogenic inducing media, oil red o staining (FIG. 7a j-l)): inhibited the adipogenic differentiation of hMSCs in a dose dependent manner

Compound: Nc1ncnc2c1nc(Sc1ccc(Cl)cc1)n2[C@@H]1O[C@@H]2COP(=O)(O)O[C@H]2[C@H]1O [8-CPT-cAMP]
- differentiation of hMSCs into mature adipocytes (hMSCs [2]): sufficient to differentiate hMSCs into mature adipocytes
- cell fate commitment osteogenic vs adipogenic (hMSCs [2]): could switch cell fate commitment from osteogenic to adipogenic
- adipogenic differentiation of hMSCs, cAMP-raising compounds (hMSCs [2]): promoted hMSCs to undergo adipogenic differentiation

Compound: Nc1ncnc2c1ncn2[C@@H]1O[C@H](COP(=O)(O)OP(=O)(O)OP(=O)(O)O)[C@@H](O)[C@H]1O [ATP]
- siP2RY11 and siSLC12a2 induced osteogenesis in combination with OS (hMSCs [1]; OS and ATP added on third day after siRNA transfection, continued for a week, ALP staining): dosage-dependent inhibitory effect
- osteogenic differentiation of hMSCs combined with OS treatment (hMSCs [1]): inhibited the OS-induced osteogenesis of hMSCs
- number of cells undergoing adipogenic differentiation (hMSCs [2]; ATP treatment of OS-treated hMSCs): slightly increases

Compound: CCCC(=O)Nc1ncnc2c1ncn2[C@@H]1O[C@@H]2COP(=O)(O)O[C@H]2[C@H]1OC(=O)CCC [DB-cAMP, N6,2′-dibutyryl-cAMP]
- differentiation of hMSCs into mature adipocytes (hMSCs [2]): sufficient to differentiate hMSCs into mature adipocytes
- adipogenic differentiation of hMSCs, cAMP-raising compounds (hMSCs [2]): promoted hMSCs to undergo adipogenic differentiation

Compound: CC(C)Cn1c(=O)n(C)c(=O)c2[nH]cnc21 [IBMX, 3-isobutyl-1-methylxanthine]
- cell fate commitment osteogenic vs adipogenic (hMSCs [2]): could switch cell fate determination from osteogenic to adipogenic differentiation
- adipogenic differentiation of hMSCs, cAMP-raising compounds (hMSCs [2]): promoted hMSCs to undergo adipogenic differentiation

Compound: COc1cccc(-c2cc(=O)c3ccccc3o2)c1N [PD98059]
- osteogenic differentiation of hMSCs combined with OS treatment (hMSCs [1]): inhibited the osteogenic inducing effect of OS

Compound: CCCCC[C@H](O)/C=C/[C@H]1[C@H](O)CC(=O)[C@@H]1C/C=C\CCCC(=O)O [PGE2, Prostaglandin E2]
- cell fate commitment osteogenic vs adipogenic (hMSCs [2]): could switch cell fate determination from osteogenic to adipogenic differentiation

Compound: Oc1ccc(-c2nc(-c3ccncc3)c(-c3ccc(F)cc3)[nH]2)cc1 [SB202190]
- osteogenic differentiation of hMSCs combined with OS treatment (hMSCs [1]): inhibited the osteogenic inducing effect of OS

Compound: siADCY8: siRNA GGAGAUCAACAAGCAUUCA targeting adenylate cyclase 8 (listed as RNA, chemistry not given here)
- intensity of alizarin red staining (hMSCs [3]): weak enhancement

Compound: siADK: siRNA GCCACACAAAGCAGCAACA targeting adenosine kinase (listed as RNA, chemistry not given here)
- level of pCREB protein (CREB): increased
- intensity of alizarin red staining (hMSCs [3]): dramatically enhanced
- intensity of alizarin red staining, sequential treatment (hMSCs [3]; siRNA (initial 2-4 days) followed by OS media, vs control treatment (FIG. 4)): clearly enhanced the intensity of alizarin red staining

Compound: siBCL212: siRNA CCCAGGUCUCCGAUGAACU targeting BCL2-like 2 (listed as RNA, chemistry not given here)
- intensity of alizarin red staining (hMSCs [3]): modest enhancement

Compound: siBIRC4: siRNA UGUGCUACACAGUCAUUAC targeting baculoviral IAP repeat-containing 4 (listed as RNA, chemistry not given here)
- intensity of alizarin red staining (hMSCs [3]): weak enhancement

Compound: siGBDR1: siRNA CCCGAAAACAUUGCUAGCA targeting putative glialblastoma cell differentiation-related (listed as RNA, chemistry not given here)
- intensity of alizarin red staining (hMSCs [3]): dramatically enhanced

Compound: siGNAS: siRNA UCGAAGAUUGAGGACUACU targeting GNAS complex locus (listed as RNA, chemistry not given here)
- level of pCREB protein (CREB): increased
- intensity of alizarin red staining (hMSCs [3]): dramatically enhanced

Compound: siKCNT1: siRNA UGCGAGCCAAGAUGGACAA targeting potassium channel, subfamily T, member 1 (listed as RNA, chemistry not given here)
- intensity of alizarin red staining (hMSCs [3]): dramatically enhanced

Compound: siP2RY11: siRNA UGCGGGUGCUCAACGUGGA targeting purinergic receptor P2Y, G-protein coupled, 11 (listed as RNA, chemistry not given here)
- level of pCREB protein (CREB): increased
- intensity of alizarin red staining (hMSCs [3]): dramatically enhanced

Compound: siSLC12a2: siRNA CCUCUUCGUGGCUACAUCU targeting solute carrier family 12, member 2 (listed as RNA, chemistry not given here)
- level of pCREB protein (CREB): increased
- intensity of alizarin red staining (hMSCs [3]): dramatically enhanced

Compound: siTBX3: siRNA UGCCAAAGAGGAUGUACAU targeting T-box 3 (ulnar mammary syndrome) (listed as RNA, further chemistry not given here)
- intensity of alizarin red staining (hMSCs [3]): no significant effect

Source: patent US20100184113A1, “CONTROLLING OSTEOGENESIS BY INHIBITION OF OSTEOGENIC SUPPRESSORS” (The Scripps Research Institute Office of Patent Counsel, priority 2006, published 2010)
